Measurements published in US20140088144A1, “INHIBITING MICROBIAL INFECTIONS” (THE UNIVERSITY OF KANSAS, priority 2012, published 2014).

How the values were obtained:
RhaS = RhaS (Escherichia coli, UniProt P09377); test: % Inhibition at 82.5 μM, RhaS; type: cell-based, E. coli
[1] = biological target: T1, RhaS(163-278) (RhaS DNA-binding domain) (Escherichia coli, UniProt P09377); test: In vivo dose-response, rhaB-lacZ fusion activated by RhaS(163-278) (RhaS-DBD); type: cell-based, E. coli
T1 construct: expressed in transfected cells; host or cells: E. coli SME3635 (rhaB-lacZ, pHG165 expressing RhaS(163-278))
Source text: For dose-response studies, a rhaB-lacZ reporter strain was designed that allowed IPTG induction of RhaS or RhaS(163-278) expression from pHG165 (and thus rhaB-lacZ expression). The strain was constructed by introducing malP::lacIq into SME3000 via phage P1vir-mediated generalized transduction. First, SME3000 was transduced with Δcrp-3 zhc-511::Tn10 from SME1403, selecting for tetracycline resistance and screening for sorbitol deficiency (indicating Δcrp) using MacConkey sorbitol. SME3000 Acrp-3 zhc-511::Tn10 was transduced with crp^+ malP::lacI^q from SG22166, selecting for growth on minimal sorbitol and screening for maltose deficiency (indicating malP::lacI^q) using MacConkey maltose. […]
The top hit identified in the screen was 1-ethyl-4-(nitromethyl)-3-quinolin-2-yl-4H-quinoline, Compound 2. […] Lysis/ONPG buffer (50 μL, as in Primary Screen) was added to each well and the plate was immediately placed into a PowerWave XS plate reader (BioTek Instruments, Inc., Winooski, Vt.), set to read the OD420 of each well every 15 min for 4 hr. […] Due to differences in kinetics of lacZ reporter expression, the rhaB-lacZ strains were analyzed at 4 hours and the hts-lacZ strain was analyzed at 1 hr. Percent activity was calculated for each condition as described above, using the single time point with appropriate OD420 levels for each strain. […]

Rns [2] = biological target: T2, Rns (Escherichia coli, UniProt P16114); test: % Inhibition at 82.5 μM, Rns; type: cell-based, Enterotoxigenic E. coli; settings: 82.5 μM
Rns [3] = biological target: T2, Rns; test: In vivo activation by Rns (promoter-lacZ fusion); type: cell-based, Enterotoxigenic E. coli; settings: compared with full-length RhaS
Source text: Expression of promoter-lacZ fusions regulated by the indicated activators, or the control Lad regulated fusion at the indicated concentrations of Compound 1. Average of three independent experiments, with two replicates in each experiment.
The compounds of the invention can be used for inhibition of virulence in vivo and in vitro activation by Rns and VirF.

virB = test: Shigella gene expression qRT-PCR, virB; type: cell-based, S. flexneri; settings: for Average ΔΔCt / Ct / RQ (2^−ΔΔCt) / ΔΔCt^1 (normalized to gapA) / ΔΔCt^2 (normalized to rrsA): virB, example data
Description: Real-time quantitative reverse transcription PCR (qRT-PCR) was performed to test the effects of SE-1 on the expression of the VirF regulated genes virB, icsA, icsB and ipaB. The gapA and rrsA transcripts were used as internal controls. These are constitutively expressed Shigella genes commonly used to normalize mRNA levels. S. flexneri strain SME4331, which carries a null mutation in ipgD (ipgD), was grown at 30° C. overnight in TSB with ampicillin, diluted into the same medium to an OD600 of ˜0.1, and 1 ml aliquots further grown at 30° C. (DMSO only) or at 37° C. (SE-1 at 20 or 40 μM, or DMSO only, all 0.3% DMSO). Cells were grown to an OD600 of 1.0 (˜2.5 h) and RNA was isolated using an RNeasy MiniElute Cleanup Kit (Qiagen, Germantown, Md.), with DNA contamination eliminated using a Turbo DNase Kit (Ambion, Austin, Tex.). Complementary DNA (cDNA) was synthesized by random priming using a cDNA Reverse Transcription Kit (Applied Biosystems, Foster City, Calif.). Primers were tested for PCR specificity using genomic DNA template to ensure a single amplicon of the expected size for each primer pair, and validated using 5-fold dilutions of cDNA (2000 to 0.0256 ng) to ensure a linear plot of cycle threshold (Ct) versus cDNA concentration. Validated primer sets were used to test mRNA profiles in reactions that contained 10 ng of cDNA, 10 μl of SYBR green master mix (Applied Biosystems), specific primers (0.5 μM each) and water to a final volume of 20 μl, using a Step One Plus Real-Time PCR System (Applied Biosystems). The data was analyzed using the 2^−ΔΔCt method, and also by Applied Biosystems real-time analysis software. […] In brief, ΔΔCt values [ΔΔCt=(Ct,Target−Ct,Internal Control)SE-1−(Ct,Target−Ct,Internal Control)no SE-1] were separately obtained for each sample relative to two internal controls, gapA and rrsA. The ΔΔCt values relative to the two internal controls for each sample were averaged and then used to calculate the relative expression levels (2^−ΔΔCt). As a control, we also normalized each internal control to the other internal control. Control reactions used templates generated without reverse transcriptase to ensure low genomic DNA contamination. To ensure that products were not likely to be due to primer dimer artifacts, additional control samples were performed in which reaction mixtures contained primers alone (no template).

T2 sequence (P16114 whole entry, the tested form may be a part): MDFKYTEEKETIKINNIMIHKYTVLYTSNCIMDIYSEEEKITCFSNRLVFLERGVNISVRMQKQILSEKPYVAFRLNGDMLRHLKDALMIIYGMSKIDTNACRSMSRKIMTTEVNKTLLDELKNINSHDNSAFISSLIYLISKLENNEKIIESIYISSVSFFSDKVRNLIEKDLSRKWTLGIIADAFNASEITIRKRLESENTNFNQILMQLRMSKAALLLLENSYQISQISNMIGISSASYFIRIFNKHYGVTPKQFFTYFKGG
T1 sequence (P09377 163-278): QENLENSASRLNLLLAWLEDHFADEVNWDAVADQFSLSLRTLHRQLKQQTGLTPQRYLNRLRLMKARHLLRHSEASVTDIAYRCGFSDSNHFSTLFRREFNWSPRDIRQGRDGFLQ
Chain of RhaS (P09377 whole entry, the tested form may be a part): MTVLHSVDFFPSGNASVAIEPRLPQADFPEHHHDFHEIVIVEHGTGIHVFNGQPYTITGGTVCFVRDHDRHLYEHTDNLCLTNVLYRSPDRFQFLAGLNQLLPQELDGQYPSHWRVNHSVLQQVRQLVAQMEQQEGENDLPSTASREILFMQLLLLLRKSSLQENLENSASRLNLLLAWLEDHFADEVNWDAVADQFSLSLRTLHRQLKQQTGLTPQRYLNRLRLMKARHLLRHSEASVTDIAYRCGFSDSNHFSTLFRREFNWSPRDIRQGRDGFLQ

CCCCN1C=C(c2ccc3ccccc3n2)C(C[N+](=O)[O-])c2ccccc21 (stereo not shown) [Compound 1, 1-butyl-4-(nitromethyl)-3-quinolin-2-yl-4H-quinoline]
% Inhibition at 82.5 μM RhaS (RhaS): 90% | inhibition of RhaS(163-278)-activated expression ([1]; RhaS-DBD): fully inhibit expression | IC50 ([1]; RhaS-DBD (SME3635), read-out: IC50, rhaB-lacZ activation by RhaS(163-278)): ~10 µM | % Inhibition at 82.5 μM Rns (Rns [2]): 90% | inhibition of in vivo activation by Rns (Rns [3]): similar, if not greater, extent than full-length RhaS | maximal inhibition of virB expression (virB; 40 μM SE-1, P<0.05): more than two fold | Average ΔΔCt (virB; SE-1 20 μM): 1.13 | Ct (virB; SE-1 20 μM): 23.26 | RQ (2^−ΔΔCt) (virB; SE-1 20 μM): 0.46 | ΔΔCt^1 (normalized to gapA) (virB; SE-1 20 μM): 0.63 | ΔΔCt^2 (normalized to rrsA) (virB; SE-1 20 μM): 1.63 | Average ΔΔCt (virB; SE-1 40 μM): 1.47 | Ct (virB; SE-1 40 μM): 23.18 | RQ (2^−ΔΔCt) (virB; SE-1 40 μM): 0.36 | ΔΔCt^1 (normalized to gapA) (virB; SE-1 40 μM): 1.12 | ΔΔCt^2 (normalized to rrsA) (virB; SE-1 40 μM): 1.81
